Literature values in patent US20040204467A1, “Use of 5HT3-receptor-antagonists” (priority 1998, published 2004).

What was measured:
patients with CFS = conditions: after an acute application on patients with CFS
CFS patients = conditions: daily dose of 20 mg; also in patients with accompanying symptoms of depression

SMILES	rise of prolactin in the serum (patients with CFS)	result of treatment of CFS (CFS patients)
CCN[C@@H](C)Cc1cccc(C(F)(F)F)c1 [D-Feufluoroamin]	significantly increased rise of prolactin	–
CNCCC(Oc1ccc(C(F)(F)F)cc1)c1ccccc1 (centres unmarked) [fluoxetin]	–	negative in result
